Format in all cases: cell-based
One experiment deals with MCF7 Abema-resistant. In words: Cell number dose-response. The conditions noted are these: Homo sapiens, MCF7, read-out: IC50 (nmol/L): MCF7. An excerpt: (§1) MCF7 abemaciclib-resistant cells were generated by continuous treatment with abemaciclib at a concentration of 250 nmol/L for 72 days, followed by 500 nmol/L for 48 days. MCF7 fulvestrant-resistant cells were generated by continuous treatment of 100 nmol/L Fulvestrant for 125 days. MCF7 abemaciclib/fulvestrant-resistant cells were generated by treating abemaciclib-resistant cells continuously with 100 nmol/L fulvestrant for 137 days. T47D abemaciclib-resistant lines were generated by continuous treatment with abemaciclib at a concentration of 500 nmol/L for 73 days. T47D fulvestrant–resistant cells were generated by continuous treatment with 100 nmol/L fulvestrant for 68 days. T47D abemaciclib/fulvestrant-resistant cells were generated by treating abemaciclib-resistant cells with continuous treatment of 100 nmol/L Fulvestrant for 60 days. Resistant cell lines were cultured in medium containing drug(s) that the line is resistant to and further authenticated using short tandem repeat profiling.
(§2) An exception to this is MCF7PDRCl5-1 cells which were first cultured for 5 days without palbociclib then plated as described. MCF7PDRCl5-1 cells were treated with either a dose curve of the indicated CDK4/6i or a dose curve of INX-315 + 1 µmol/L of the indicated CDK4/6i. Cell viability was determined using the CellTiter-Glo assay (Promega, G9241) following manufacturer's instructions. Plates were processed on either BioTek Synergy2 multi-mode (Agilent) or ClarioSTAR (BMG Labtech) plate readers. T47D and MCF7 cells were seeded into […] plates using BioTek 406 (Aglient) and treated with a ten-point dose concentration from 10 µmol/L to 0.3 nmol/L of INX-315 for 2× doubling times. Plates were fixed with 4% PFA and stained with Rhodamine-Phalloidin (Bio-Trend, 00027) and DAPI (5 mg/mL, Invitrogen, catalog no. D1306). Plates were imaged using CellInsight CX7 LZR and DAPI-positive cells were counted using Thermo Fisher Scientific HCS Studio Cell Analysis Software.

A further experiment deals with MCF7 Fulv-resistant. In words: Cell number dose-response. Particulars: Homo sapiens, MCF7, read-out: IC50 (nmol/L): MCF7.
Source text: as §1, §2

In the next experiment the test system is T47D Abema-resistant. In words: Cell number dose-response. The conditions noted are these: Homo sapiens, read-out: IC50 (nmol/L): T47D.
Source text: as §1, §2

For the next experiment, the system named is T47D Parent. Kind of experiment: Cell number dose-response. The conditions noted are these: Homo sapiens.
Source text: as §1, §2

The subject of experiment [1] is CDK4/6-resistant breast cancer cells. In words: Cell number dose-response (discussion summary). Particulars: addition of INX-315 to CDK4/6-resistant cells. The procedure:
as §2

Read-outs that look alike come from different tables or passages of the source.

Regarding `NS(=O)(=O)c1ccc(Nc2ncc3cc4n(c3n2)C2(CCCCC2)C(=O)NN4)cc1` [INX-315], the IC50 was 45 nmol/L in the experiment with MCF7 Abema-resistant; 3470 nmol/L in the experiment on MCF7 Fulv-resistant; 7.4 nmol/L in the experiment with T47D Abema-resistant; 332 nmol/L with T47D Parent (read-out: IC50 (nmol/L): T47D, Parent + abema: 500 nmol/L abemaciclib concurrently); 360 nmol/L in the experiment with T47D Parent (read-out: IC50 (nmol/L): T47D, Parent cells in DMSO); less than 0.025 µM in experiment [1].
